Results reported in ChEMBL document CHEMBL1150953, “Novel betaines from the marine sponge Agelas dispar” (1998).
Values after ≈ are worked out from the molar mass of the structure shown.

Tests used:
Bacillus subtilis = assay: Antibacterial activity against Bacillus subtilis ATCC 6633 after 16 hrs; format: functional; details: ATCC 6633, 16 h
Staphylococcus aureus = assay: Antibacterial activity against Staphylococcus aureus ATCC 6538 after 16 hrs; format: functional; details: ATCC 6538, 16 h

Structure (SMILES)	MIC (Bacillus subtilis)	MIC (Staphylococcus aureus)
Cn1c(CC(=O)[O-])c[n+](C)c1N [AMINOZOOANEMONIN]	2.5 µg/mL (≈ 14.8 µM)	8.5 µg/mL (≈ 50.2 µM)
O=C([O-])c1ccc[n+](CCO)c1 [PYRIDINEBETAINE A]	3.5 µg/mL (≈ 20.9 µM)	5 µg/mL (≈ 29.9 µM)
